Laboratory results reported in patent US10494363B2, “Non-steroidal glucocorticoid receptor modulators for local drug delivery” (LEO PHARMA A/S, priority 2015, dated 2019).

How the values were obtained:
[1] = Human liver microsomes (HLM) assay; assay type: in vitro ADME; conditions: hepatic extraction ratio; 0.5 μM compound, 0.5 mg/mL microsomes, NADPH, 37° C.
Method: Incubations of test compounds in DMSO, diluted with phosphate buffer, pH 7.4, at 0.5 μM were carried out with human liver microsomes (0.5 mg/mL). The percentage of organic solvent in the incubations was 1%. The human liver microsomal suspension in phosphate buffer was mixed with NADPH (1 mM) and preheated to 37° C. before test compound was added. Aliquots were taken at 0, 5, 10, 20 and 30 minutes, and reactions were terminated by addition of methanol containing analytical internal standard (IS).
The results were expressed as apparent clearance (Clapp) (mL/min/kg) and hepatic extraction ratio (Eh) (%) calculated from the rate constant (k) (min^−1) of test compound depletion.

[2] = molecular target: T1, glucocorticoid receptor (GR), recombinant full-length receptor protein (Homo sapiens, UniProt P04150); assay: Glucocorticoid receptor binding assay (fluorescence polarization kit); conditions: 4 nM receptor, 2.5 nM Fluormone GS1 tracer, 2h room temperature, read-out: GR binding ABS IC50
T1 construct: 4 nM recombinant, full-length receptor protein was incubated with increasing concentrations of GR ligand; purchased Life Technologies A-15897
T1 sequence (P04150 1-777): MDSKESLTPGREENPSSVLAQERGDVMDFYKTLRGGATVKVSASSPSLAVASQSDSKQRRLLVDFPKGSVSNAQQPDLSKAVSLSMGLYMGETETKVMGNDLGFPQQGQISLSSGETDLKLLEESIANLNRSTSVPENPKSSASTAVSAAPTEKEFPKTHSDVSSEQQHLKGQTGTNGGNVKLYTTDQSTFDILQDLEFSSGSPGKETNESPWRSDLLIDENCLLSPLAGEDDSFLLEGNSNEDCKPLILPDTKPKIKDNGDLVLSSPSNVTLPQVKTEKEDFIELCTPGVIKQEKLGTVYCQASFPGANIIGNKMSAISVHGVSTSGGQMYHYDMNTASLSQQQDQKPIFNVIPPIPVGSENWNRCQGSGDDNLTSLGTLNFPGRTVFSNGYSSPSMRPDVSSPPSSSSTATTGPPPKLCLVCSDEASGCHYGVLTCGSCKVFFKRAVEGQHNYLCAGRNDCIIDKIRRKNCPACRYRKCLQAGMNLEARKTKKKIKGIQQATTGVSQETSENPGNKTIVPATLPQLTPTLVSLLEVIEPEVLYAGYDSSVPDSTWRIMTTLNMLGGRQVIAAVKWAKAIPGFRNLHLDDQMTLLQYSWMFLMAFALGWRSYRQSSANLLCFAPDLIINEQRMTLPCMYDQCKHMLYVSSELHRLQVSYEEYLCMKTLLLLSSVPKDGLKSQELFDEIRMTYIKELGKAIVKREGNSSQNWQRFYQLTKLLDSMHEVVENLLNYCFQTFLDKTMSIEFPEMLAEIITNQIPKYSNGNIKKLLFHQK
Method: Test compounds were diluted in DMSO over seven orders of magnitude, further diluted in assay buffer and distributed into 384-well plates. The sensitivity limit of this assay was 2-4 nM.
Data were processed by sigmoidal curve fitting.
Absolute (Abs) IC50 and Emax were determined from the curve fits.

[3] = system: TNF alpha release from human PBMCs; assay: Inhibition of TNF alpha release from human PBMCs; assay type: cell-based; conditions: LPS 1 μg/ml, 18 hours, AlphaLISA
Summary of the method: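 Fresh or thawed PBMCs in serum-free medium with 0.5% HSA, stimulated with 1 μg/ml LPS plus titrated compound for 18 h at 37° C. TNF-a in supernatant by AlphaLISA; window set with a reference PDE4 inhibitor at 100×IC50. EC50 and Emax from sigmoidal fits.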

SMILES	HLM assay Eh (%) [1]	IC50 [2] [nM]	EC50 ([3]; PBMC) [nM]	EC50 [3] [nM]
C[C@H](NC(=O)[C@@H]1CCCO1)[C@H](Oc1ccc(C(=O)N[C@H]2CCCN(C(=O)[C@H]3COC(=O)C3)C2)nc1)c1ccc(C2CC2)cc1 [Compound 20, 5-[(1R,2S)-1-(4-cyclopropylphenyl)-2-[[(2S)-tetrahydrofuran-2-carbonyl]amino]propoxy]-N-[(3S)-1-[(3R)-5-oxotetrahydrofuran-3-carbonyl]-3-piperidyl]pyridine-2-carboxamide]	* (extraction ratio (Eh)>90%)	100 to 300	< 100	–
C[C@H](NC(=O)C(C)(C)O)[C@H](Oc1ccc(C(=O)N[C@H]2CCCN(C(=O)[C@H]3COC(=O)C3)C2)nc1)c1ccc(C2CC2)cc1 [Compound 15, 5-[(1R,2S)-1-(4-cyclopropylphenyl)-2-[(2-hydroxy-2-methyl-propanoyl)amino]propoxy]-N-[(3S)-1-[(3R)-5-oxotetrahydrofuran-3-carbonyl]-3-piperidyl]pyridine-2-carboxamide]	** (50%<extraction ratio (Eh)<90%)	> 300	< 100	–
C[C@H](NC(=O)c1cscn1)[C@H](Oc1ccc(C(=O)N[C@H]2CCCN(C(=O)[C@H]3COC(=O)C3)C2)nc1)c1ccc(C2CC2)cc1 [Compound 7, N-[(1S,2R)-2-(4-cyclopropylphenyl)-1-methyl-2-[[6-[[(3S)-1-[(3R)-5-oxotetrahydrofuran-3-carbonyl]-3-piperidyl]carbamoyl]-3-pyridyl]oxy]ethyl]thiazole-4-carboxamide]	* (extraction ratio (Eh)>90%)	< 100	< 100	–
C[C@H](NC(=O)c1cocn1)[C@H](Oc1ccc(C(=O)N[C@H]2CCCN(C(=O)[C@H]3COC(=O)C3)C2)nc1)c1ccc(C2CC2)cc1 [Compound 19, N-[(1S,2R)-2-(4-cyclopropylphenyl)-1-methyl-2-[[6-[[(3S)-1-[(3R)-5-oxotetrahydrofuran-3-carbonyl]-3-piperidyl]carbamoyl]-3-pyridyl]oxy]ethyl]oxazole-4-carboxamide]	* (extraction ratio (Eh)>90%)	< 100	< 100	–
C[C@H](NC(=O)c1ccno1)[C@H](Oc1ccc(C(=O)N[C@H]2CCCN(C(=O)[C@H]3COC(=O)C3)C2)nc1)c1ccc(C2CC2)cc1 [Compound 12, N-[(1S,2R)-2-(4-cyclopropylphenyl)-1-methyl-2-[[6-[[(3S)-1-[(3R)-5-oxotetrahydrofuran-3-carbonyl]-3-piperidyl]carbamoyl]-3-pyridyl]oxy]ethyl]isoxazole-5-carboxamide]	* (extraction ratio (Eh)>90%)	< 100	< 100	–
C[C@H](NC(=O)c1cnnn1C)[C@H](Oc1ccc(C(=O)O[C@H]2CCCN(C(=O)[C@H]3COC(=O)C3)C2)cc1)c1ccc(C2CC2)cc1 [Compound 38, [(3S)-1-[(3R)-5-oxotetrahydrofuran-3-carbonyl]-3-piperidyl] 4-[(1R,2S)-1-(4-cyclopropylphenyl)-2-[(3-methyltriazole-4-carbonyl)amino]propoxy]benzoate]	* (extraction ratio (Eh)>90%)	< 100	–	100 to 300
Cc1nc(C(=O)N[C@@H](C)[C@H](Oc2ccc(C(=O)O[C@H]3CCCN(C(=O)[C@H]4COC(=O)C4)C3)cc2)c2ccc(C3CC3)cc2)no1 [Compound 42, [(3S)-1-[(3R)-5-oxotetrahydrofuran-3-carbonyl]-3-piperidyl] 4-[(1R,2S)-1-(4-cyclopropylphenyl)-2-[(5-methyl-1,2,4-oxadiazole-3-carbonyl)amino]propoxy]benzoate]	* (extraction ratio (Eh)>90%)	< 100	< 100	–

Now from value to compound, other results behind:

HLM assay Eh (%) [1]	IC50 [2] [nM]	SMILES	EC50 ([3]; PBMC) [nM]	EC50 [3] [nM]
* (extraction ratio (Eh)>90%)	< 100	Cc1sncc1C(=O)N[C@@H](C)[C@H](Oc1ccc(C(=O)O[C@H]2CCCN(C(=O)[C@H]3COC(=O)C3)C2)cc1)c1ccc(C2CC2)cc1 [Compound 48, [(3S)-1-[(3R)-5-oxotetrahydrofuran-3-carbonyl]-3-piperidyl] 4-[(1R,2S)-1-(4-cyclopropylphenyl)-2-[(5-methylisothiazole-4-carbonyl)amino]propoxy]benzoate]	< 100	–
* (extraction ratio (Eh)>90%)	< 100	Cc1cnc(C(=O)N[C@@H](C)[C@H](Oc2ccc(C(=O)O[C@H]3CCCN(C(=O)[C@H]4COC(=O)C4)C3)cc2)c2ccc(C3CC3)cc2)s1 [Compound 26, [(3S)-1-[(3R)-5-oxotetrahydrofuran-3-carbonyl]-3-piperidyl] 4-[(1R,2S)-1-(4-cyclopropylphenyl)-2-[(5-methylthiazole-2-carbonyl)amino]propoxy]benzoate]	< 100	–
* (extraction ratio (Eh)>90%)	< 100	C[C@H](NC(=O)C(F)(F)F)[C@H](Oc1ccc(C(=O)O[C@H]2CCCN(C(=O)[C@H]3COC(=O)C3)C2)cc1)c1ccc(C2CC2)cc1 [Compound 24, [(3S)-1-[(3R)-5-oxotetrahydrofuran-3-carbonyl]-3-piperidyl] 4-[(1R,2S)-1-(4-cyclopropylphenyl)-2-[(2,2,2-trifluoroacetyl)amino]propoxy]benzoate]	< 100	–
* (extraction ratio (Eh)>90%)	< 100	COCC(=O)N[C@@H](C)[C@H](Oc1ccc(C(=O)O[C@H]2CCCN(C(=O)[C@H]3COC(=O)C3)C2)cc1)c1ccc(C2CC2)cc1 [Compound 34, [(3S)-1-[(3R)-5-oxotetrahydrofuran-3-carbonyl]-3-piperidyl] 4-[(1R,2S)-1-(4-cyclopropylphenyl)-2-[(2-methoxyacetyl)amino]propoxy]benzoate]	< 100	–
* (extraction ratio (Eh)>90%)	< 100	C[C@H](NC(=O)c1cscn1)[C@H](Oc1ccc(C(=O)O[C@H]2CCCN(C(=O)[C@H]3COC(=O)C3)C2)cc1)c1ccc(C2CC2)cc1 [Compound 55, [(3S)-1-[(3R)-5-oxotetrahydrofuran-3-carbonyl]-3-piperidyl] 4-[(1R,2S)-1-(4-cyclopropylphenyl)-2-(thiazole-4-carbonylamino)propoxy]benzoate]	< 100	–
* (extraction ratio (Eh)>90%)	< 100	Cc1cc(C(=O)N[C@@H](C)[C@H](Oc2ccc(C(=O)N[C@H]3CCCN(C(=O)[C@H]4COC(=O)C4)C3)nc2)c2ccc(C3CC3)cc2)on1 [Compound 8, N-[(1S,2R)-2-(4-cyclopropylphenyl)-1-methyl-2-[[6-[[(3S)-1-[(3R)-5-oxotetrahydrofuran-3-carbonyl]-3-piperidyl]carbamoyl]-3-pyridyl]oxy]ethyl]-3-methylisoxazole-5-carboxamide]	< 100	–
* (extraction ratio (Eh)>90%)	> 300	C[C@H](NC(=O)CCO)[C@H](Oc1ccc(C(=O)N[C@H]2CCCN(C(=O)[C@H]3COC(=O)C3)C2)nc1)c1ccc(C2CC2)cc1 [Compound 16, 5-[(1R,2S)-1-(4-cyclopropylphenyl)-2-(3-hydroxypropanoylamino)propoxy]-N-[(3S)-1-[(3R)-5-oxotetrahydrofuran-3-carbonyl]-3-piperidyl]pyridine-2-carboxamide]	< 100	–
* (extraction ratio (Eh)>90%)	< 100	C[C@H](NC(=O)C(C)(F)F)[C@H](Oc1ccc(C(=O)O[C@H]2CCCN(C(=O)[C@H]3COC(=O)C3)C2)cc1)c1ccc(C2CC2)cc1 [Compound 58, [(3S)-1-[(3R)-5-oxotetrahydrofuran-3-carbonyl]-3-piperidyl] 4-[(1R,2S)-1-(4-cyclopropylphenyl)-2-(2,2-difluoropropanoylamino)propoxy]benzoate]	< 100	–
